Experimental data taken from PMC10606924, “Interactions of Nucleosomes with Acidic Patch-Binding Peptides: A Combined Structural Bioinformatics, Molecular Modeling, Fluorescence Polarization, and Single-Molecule FRET Study” (International Journal of Molecular Sciences, 2023).
pKd: −log10 of the molar value. “Also recorded” adds a separate entry of the source.

Assays:
[1] = system: Cy3/Cy5-labeled mononucleosomes (603 DNA, 147 bp); assay: Single-molecule FRET (spFRET) of nucleosome-peptide interactions; assay type: biochemical, H. sapiens; settings: 10 μM peptide
From the text: Non-fluorescently labeled nuclesomal DNA fragments were obtained as follows. pUC57 plasmids containing eight repeats of the high-affinity 147 bp Widom 603 sequence were amplified in E. coli XL-10 stain and purified via alkaline lysis (see details in Supplementary Materials and Methods). The Widom 603 fragments were released via cleavage with EcoRV and separated from parent plasmid with polyethylene glycol precipitation in order to clear the vector backbone as described in [86]. Nucleosomal DNA fragments fluorescently labeled at the 35 and 112 bp positions were obtained following established protocols. […]
NCPs were reconstituted by mixing 147 bp Widom 603 DNA and histone octamers at a 1:1.15 molar ratio. […] Fluorescently labeled nucleosomes were detected by in-gel FRET using a Typhoon scanner (GE Healthcare, Chicago, IL, USA) with excitation at 532 nm laser and emission at 670 nm (FRET between Cy3 and Cy5) or 580 nm (Cy3 signal) (Supplementary Figure S5).
Single-particle FRET measurements were conducted with LSM710-Confocor3 laser scanning confocal microscope (Carl Zeiss, Jena, Germany) as described previously. […] To evaluate the level of background signal and reveal fluorescence bursts, spFRET data were analyzed using the FretBursts version 0.7.1 software. […]

[2] = target: nucleosome (H. sapiens canonical histone octamer on 147 bp Widom 603 DNA) (H. sapiens) (UniProt P04908); assay: fluorescence polarisation; 100 nM FAM-LANA_(1-22) as tracer, nucleosome concentration varied by two-fold serial dilution, 30 min at +4 C; 10 mM TrisHCl pH 8.0, 200 uM EDTA, 5 mM 2-mercaptoethanol, 10 mM NaCl; simple direct binding model with identical, non-interacting sites
[3] = system: FAM-LANA1-22 (Kaposi's sarcoma-associated herpesvirus); assay: fluorescence polarization; settings: FP: 10 mM Tris-HCl pH 8.0, 0.2 mM EDTA, 5 mM 2-mercaptoethanol, 10 mM NaCl, 30 min incubation at 4 C, EMSA: 6% PAGE, 10 mM HEPES-Na pH 8.0, 0.2 mM EDTA

## PNVRRSNRIRLKPLEYWRGERIDYQ [CENP-Cmotif, fragment of CENP-C protein (amino acids 710–734) from R. norvegicus]
[1]; 1 nM nucleosomes
  shift of EPR value distribution: shift of the EPR value distribution towards higher EPR values; also recorded: makes nucleosomes, on average, more compact
[1]; spFRET
  effect on average nucleosome compactness, compared with LANA1-22: higher than that of LANA1-22; also recorded: makes nucleosomes more compact than LANA1-22, on average

## FAM-labeled LANA_(1-22) peptide (from UniProt Q9QR71 1-22)
[2]
  pKd: 6.40

## Widom 603 nucleosome
[3]
  pKd: 6.40
